Values quoted from earlier work as cited in the CATMoS acute toxicity set (Mansouri et al. 2021).

Experiment: rat acute oral toxicity
Settings: in vivo
For `OC(CCl)CCl`, the LD50 is listed as 110 mg/kg. In the case of `OCCOCCN1CCN(C(c2ccccc2)c2ccccc2)CC1`, the LD50 is given as 840 mg/kg. In the case of `CO[SiH](OC)OC`, the LD50 is listed as 9330 mg/kg. In the case of `CCOCCC#N`, the LD50 is given as 3200 mg/kg. In the case of `CSc1nc(-c2ccc(Cl)cc2)n(-c2ccc(Cl)cc2)n1`, the LD50 is listed as 770 mg/kg. For `OCCOCc1ccccc1`, the LD50 is listed as 1190 mg/kg. In the case of `CN(C)[SiH](N(C)C)N(C)C`, the LD50 is given as 594 mg/kg. In the case of `CCCCCCCCCCCCCC[N+](C)(C)Cc1ccccc1`, the LD50 is listed as 426 mg/kg. For `CCSc1nc(NC(C)C)nc(NC(C)C)n1`, the LD50 is listed as 3900 mg/kg. For `N#CCON=C(C#N)c1ccccc1`, the LD50 is given as 2280 mg/kg. For `CC1CC(C)(C)OB(OC(C)CC(C)(C)OB2OC(C)CC(C)(C)O2)O1` (stereo unspecified), the LD50 is given as 4720 mg/kg. In the case of `C[C@H](CN1CCOCC1)C(C(=O)N1CCCC1)(c1ccccc1)c1ccccc1`, the LD50 is listed as 71.8 mg/kg. For `CC(=O)OC(C)OC(=O)C(C)c1ccc(-c2ccccc2)c(F)c1` (stereo unspecified), the LD50 is listed as 66 mg/kg. For `O=C(O)C(F)(F)C(F)(F)C(F)(F)C(F)(F)C(F)(F)C(F)(F)C(F)(F)C(F)(F)C(F)(F)C(F)F`, the LD50 is given as 518 mg/kg. In the case of `CNS(=O)(=O)c1cc(OC)c(N)cc1C`, the LD50 is listed as 91.5 mg/kg. In the case of `CCOc1ccc(NC(=O)C(N=Nc2ccc(-c3ccc(N=NC(C(C)=O)C(=O)Nc4ccc(OCC)cc4)c(Cl)c3)cc2Cl)C(C)=O)cc1` (stereo unspecified), the LD50 is given as 2230 mg/kg. In the case of `CCOC(=O)C(C(=O)Cc1c(C)n(C(=O)c2ccc(Cl)cc2)c2ccc(OC)cc12)C(=O)OCC`, the LD50 is given as 520 mg/kg. In the case of `CCOC(C1=NCC(OC)CN1)c1ccccc1` (stereo unspecified), the LD50 is given as 875 mg/kg. For `CCOC(=O)Nc1ccc2c(c1)N(C(=O)CCN1CCOCC1)c1ccccc1CC2`, the LD50 is given as 623 mg/kg. In the case of `CN(C)c1ccc(N=NS(=O)(=O)O)cc1`, the LD50 is given as 60 mg/kg. In the case of `CCCCCCCCCCCCCCCCCCN(C(=O)CC(C(=O)O)S(=O)(=O)O)C(CC(=O)O)C(=O)O` (stereo unspecified), the LD50 is listed as 6500 mg/kg. For `CCC12CCC3c4ccc(O)cc4CCC3C1CC(O)C2O` (stereo unspecified), the LD50 is given as 5010 mg/kg. For `CCN1CC2CN(C)CC(C1)C2OC(=O)c1ccc(Cl)cc1` (stereo unspecified), the LD50 is listed as 200 mg/kg. In the case of `CCc1cccc(CC)c1N(CC(=O)O)C(=O)CCl`, the LD50 is listed as 2300 mg/kg. In the case of `CC(C(=O)O)c1ccc2oc(-c3ccc(Cl)cc3)nc2c1` (stereo unspecified), the LD50 is listed as 118 mg/kg. For `CCC(=O)OC(=O)CC`, the LD50 is listed as 2360 mg/kg. For `CCC/C=C/C=O`, the LD50 is given as 780 mg/kg. For `CN1CCN(C(=O)OC2c3nccnc3C(=O)N2c2ccc(Cl)cn2)CC1` (stereo unspecified), the LD50 is given as 827 mg/kg. For `CC(C)N(C)C`, the LD50 is given as 684 mg/kg. In the case of `COC(CN1CCN(CCC(O)c2ccccc2)CC1)c1ccccc1` (stereo unspecified), the LD50 is listed as 640 mg/kg. In the case of `CCc1cc2c(cc1C(C)=O)C(C)(C)CCC2(C)C`, the LD50 is given as 260 mg/kg. In the case of `O=C(CO)Nc1ccccc1`, the LD50 is listed as 1700 mg/kg. In the case of `CC=CC(=O)N(CC)c1ccccc1C`, the LD50 is listed as 1500 mg/kg. In the case of `CN(C)c1cccc2nc3cccc([N+](=O)[O-])c3cc12`, the LD50 is listed as 24 mg/kg. For `CCOC(C1=NCCCN1)c1cccc2ccccc12` (stereo unspecified), the LD50 is listed as 375 mg/kg. For `O=C(O)c1cc(S(=O)(=O)O)ccc1O`, the LD50 is listed as 1850 mg/kg. In the case of `COc1c(C(=O)CCC(=O)O)ccc2c(C)c(C)oc12`, the LD50 is given as 3000 mg/kg. For `CCN(CC)CCOC(=O)Cc1ccc2c(c1)OCc1ccccc1C2=O`, the LD50 is listed as 150 mg/kg. In the case of `CCOC(OCC)OCC`, the LD50 is given as 7060 mg/kg. For `O=[N+]([O-])CCCO`, the LD50 is listed as 77 mg/kg. In the case of `COC(F)(F)C(F)Cl` (stereo unspecified), the LD50 is listed as 5130 mg/kg. In the case of `CCN(COC)N=O`, the LD50 is given as 540 mg/kg. In the case of `CC(C)OC(=O)c1cncc(C(=O)OC(C)C)c1`, the LD50 is given as 5230 mg/kg. In the case of `O=S(=O)(F)C(F)(F)C(F)(F)C(F)(F)C(F)(F)C(F)(F)C(F)(F)C(F)(F)C(F)(F)F`, the LD50 is given as 154 mg/kg. For `CCC1(CCC(C)C)C(=O)NC(=O)NC1=O`, the LD50 is given as 250 mg/kg. In the case of `CCCCCc1ccccc1O`, the LD50 is given as 700 mg/kg. For `CN(Cc1ccc(Cl)cc1Cl)S(N)(=O)=O`, the LD50 is listed as 2350 mg/kg. For `CCC(C)N(C(=O)SCc1ccccc1)C(C)CC` (stereo unspecified), the LD50 is listed as 10000 mg/kg. For `COc1c2occc2c(OC)c2c(=O)cc(C)oc12`, the LD50 is given as 68.8 mg/kg. In the case of `O=C1CC2(CCCC2)CC(=O)N1CCCCN1CCN(c2nsc3ccccc23)CC1`, the LD50 is given as 1850 mg/kg. For `Cc1cc(C)c(C2=C(OC(=O)OC(C)C)c3ccccc3C2=O)c(C)c1`, the LD50 is listed as 707 mg/kg. In the case of `CCOC(=O)Cc1cccc2ccccc12`, the LD50 is given as 3580 mg/kg. For `CCCCCCC#COC(=O)OCC`, the LD50 is listed as 2850 mg/kg. In the case of `COc1cc2nc(N3CCN(C(=O)C4CCCO4)CC3)nc(N)c2cc1OC` (stereo unspecified), the LD50 is given as 5500 mg/kg. For `CC(C)Nc1nc(NC(C)C)nc(N(C)C#N)n1`, the LD50 is given as 1700 mg/kg. For `ONc1ccccc1`, the LD50 is listed as 100 mg/kg. In the case of `CCCCC(CC)CNC1CCCCC1` (stereo unspecified), the LD50 is given as 710 mg/kg. For `O=C(Cc1ccc(-c2ccccc2)cc1)OCCF`, the LD50 is given as 6 mg/kg. In the case of `N#CC(C#N)=C1SCS1`, the LD50 is given as 75 mg/kg. In the case of `COc1ccccc1-c1ccccc1`, the LD50 is given as 3600 mg/kg. For `O=S(=O)(O)c1ccc2c(/N=N\c3ccc(S(=O)(=O)O)c4ccccc34)c(O)c(S(=O)(=O)O)cc2c1`, the LD50 is listed as 6000 mg/kg. In the case of `CC(C)OC(=O)C(C(=O)OC(C)C)=C1SC=CS1`, the LD50 is given as 2060 mg/kg. In the case of `CC(=O)C(N=Nc1ccc(-c2ccc(N=NC(C(C)=O)C(=O)Nc3ccc(C)cc3)c(Cl)c2)cc1Cl)C(=O)Nc1ccc(C)cc1` (stereo unspecified), the LD50 is given as 2230 mg/kg. In the case of `Cc1c(Cl)cccc1Nc1ccccc1C(=O)O`, the LD50 is listed as 225 mg/kg. For `CN(C)C(=O)Nc1ccc(Cl)cc1`, the LD50 is listed as 1050 mg/kg. For `CCn1c2c(c3cc(N)ccc31)CCCC2`, the LD50 is given as 198 mg/kg. For `CCOC(C1=NCC(C)(C)CN1)c1ccc(Cl)cc1` (stereo unspecified), the LD50 is given as 190 mg/kg. For `CCCCCCCC(=O)Oc1c(I)cc(C#N)cc1I`, the LD50 is given as 190 mg/kg. In the case of `CCOP(=S)(OCC)SCC(=O)NC(C)C`, the LD50 is given as 8 mg/kg. For `CCOC(=O)C1=CN(C(C)=O)C2CCCC(C)N2C1=O` (stereo unspecified), the LD50 is listed as 2500 mg/kg. For `NCC(c1cccs1)N1CCCCC1` (stereo unspecified), the LD50 is listed as 1480 mg/kg.
